Test results as given in ChEMBL document CHEMBL4334497, “Synthesis and Pharmacological Characterization of 2-(2,6-Dichlorophenyl)-1-((1S,3R)-5-(3-hydroxy-3-methylbutyl)-3-(hydroxymethyl)-1-methyl-3,4-dihydroisoquinolin-2(1H)-yl)ethan-1-one (LY3154207), a Potent, Subtype Selective, and Orally Available Positive Allosteric Modulator of the Human Dopamine …” (J Med Chem, 2019).
Values after ≈ are worked out from the molar mass of the structure shown. Active and inactive are the calls of the source. No cut-off for these calls is given here.

Legend:
[1] = test system: Mus musculus; assay: Induction of locomotor activity in human D1 receptor knock-in habituated transgenic mouse assessed as increase in total ambulations at 30 to 60 mg/kg, sc measured for 60 mins after dosing by photocell beam monitoring based method; assay type: functional, organism-based
[2] = test system: Mus musculus; assay: Induction of locomotor activity in human D1 receptor knock-in habituated transgenic mouse assessed as increase in total ambulations up to 10 mg/kg, sc measured for 60 mins after dosing by photocell beam monitoring based method; assay type: functional, organism-based
[3] = Oral bioavailability in CD1 mouse 10 mg/kg measured up to 24 hrs by LC-MS/MS.analysis; assay type: ADME, organism-based; conditions: in vivo
[4] = Solubility of the compound in pH 6.0 buffer by high throughput solubility assay; assay type: physicochemical
[5] = Volume of distribution at steady state in CD1 mouse 1 mg/kg, iv or 10 mg/kg, po measured up to 24 hrs by LC-MS/MS.analysis; assay type: ADME, organism-based; conditions: in vivo, read-out: Vdss
[6] = Half life in CD1 mouse 1 mg/kg, iv measured up to 24 hrs by LC-MS/MS.analysis; assay type: ADME, organism-based; conditions: in vivo
[7] = Clearance in CD1 mouse 1 mg/kg, iv measured up to 24 hrs by LC-MS/MS.analysis; assay type: ADME, organism-based; conditions: in vivo
[8] = Unbound brain-to-plasma concentration ratio in mouse at 3 to 240 mg/kg, po by LC-MS/MS.analysis; assay type: ADME, organism-based; conditions: read-out: K(p,uu,brain)
[9] = biological target: T1, D(1A) dopamine receptor (Homo sapiens, UniProt P21728); assay: Positive allosteric modulator activity at human D1 receptor stably expressed in HEK293 cells assessed as potentiation of EC20 dopamine-induced cAMP accumulation incubated for 60 mins by HTRF assay relative to dopamine alone; assay type: functional, cell-based
T1 sequence (P21728 whole entry): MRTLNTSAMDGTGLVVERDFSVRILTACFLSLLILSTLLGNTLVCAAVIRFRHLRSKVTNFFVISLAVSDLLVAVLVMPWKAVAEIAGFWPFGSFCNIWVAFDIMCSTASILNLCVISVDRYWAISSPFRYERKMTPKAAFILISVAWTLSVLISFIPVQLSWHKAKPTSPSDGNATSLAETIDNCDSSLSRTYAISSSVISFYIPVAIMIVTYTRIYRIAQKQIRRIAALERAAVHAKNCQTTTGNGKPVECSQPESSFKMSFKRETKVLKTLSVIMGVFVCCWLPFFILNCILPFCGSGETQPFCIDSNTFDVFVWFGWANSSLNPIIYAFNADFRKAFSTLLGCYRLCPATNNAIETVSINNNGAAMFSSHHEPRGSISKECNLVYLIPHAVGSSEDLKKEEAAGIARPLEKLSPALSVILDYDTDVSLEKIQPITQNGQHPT

[10] = AUC in CD1 mouse 10 mg/kg, po measured up to 24 hrs by LC-MS/MS.analysis; assay type: ADME, organism-based; design: dose 10 mg/kg, time < 24 hr, route oral; conditions: in vivo
[11] = AUC in CD1 mouse 1 mg/kg, iv measured up to 24 hrs by LC-MS/MS.analysis; assay type: ADME, organism-based; design: dose 1 mg/kg, time < 24 hr, route intravenous; conditions: in vivo
[12] = Cmax in CD1 mouse 10 mg/kg, po measured up to 24 hrs by LC-MS/MS.analysis; assay type: ADME, organism-based; design: dose 10 mg/kg, route oral; conditions: in vivo
[13] = Permeability from apical to basolateral side in MDCK2 cells stably expressing human wild-type ABCB1 at 5 uM incubated for 60 mins; assay type: ADME, cell-based, Canis lupus familiaris; conditions: dog, mdck-ii, 1 h
[14] = Unbound intrinsic clearance in human liver microsomes; assay type: ADME, Microsome
[15] = Unbound intrinsic clearance in mouse liver microsomes; assay type: ADME, Microsome
[16] = Unbound fraction in mouse brain by equilibrium dialysis assay; assay type: ADME, tissue-based
[17] = Tmax in CD1 mouse 10 mg/kg, po measured up to 24 hrs by LC-MS/MS.analysis; assay type: ADME, organism-based; conditions: in vivo
[18] = Unbound fraction in mouse plasma by equilibrium dialysis assay; assay type: ADME, cell-free
[19] = biological target: T1, D(1A) dopamine receptor; assay: Positive allosteric modulator activity at human D1 receptor stably expressed in HEK293 cells assessed as potentiation of EC20 dopamine-induced cAMP accumulation incubated for 60 mins by HTRF assay; assay type: functional, cell-based
[20] = Unbound fraction in mouse liver microsomes by equilibrium dialysis assay; assay type: ADME, Microsome

SMILES	Activity [1]	Activity [2]	bioavailability [3]	solubility [4]	Vd [5]	half-life [6]	clearance [7]	Kp uu [8]	Emax [9]	AUC at 24 h [10]	AUC at 24 h [11]	Cmax [12]	permeability [13]	CL free [14]	CL free [15]	fraction unbound [16]	Tmax [17]	fraction unbound [18]	EC50 [19]	fraction unbound [20]
C=CCN1CCc2c(cc(O)c(O)c2Cl)C(c2ccccc2)C1 (stereo not given)	inactive	Active	–	–	–	–	–	–	–	–	–	–	–	–	–	–	–	–	–	–
C[C@H]1c2cccc(C(C)(C)O)c2C[C@H](CO)N1C(=O)Cc1c(Cl)cccc1Cl	–	–	9%	116 µg/mL (≈ 275 µM)	1.65 L/kg	13.8 min	96.9 mL/min/kg	1.1	93%	0.367 µM·h	0.406 µM·h	219 nM	14%	43 mL/min/kg	965 mL/min/kg	0.055	30 min	0.051	13.9 nM	0.711
